The record followed here is PMC5992141, “Discovery of pancreastatin inhibitor PSTi8 for the treatment of insulin resistance and diabetes: studies in rodent models of diabetes mellitus” (Scientific Reports, 2018).

SMILES strings stand for the structures. Residues, ends and D or L forms follow the SMILES beside them.

Series [1] concerns the target T1, GRP78 receptor (Homo sapiens, UniProt P11021). The series can be described thus: Competitive binding with sulphorhodamine labelled PST and PSTi8 in HepG2 cells. Set-up: endogenous in cells; host or cells: HepG2. The protocol: Sulphorhodamine B labelled PST and PSTi8 were synthesized and purified from Genpro Biotech, India. In HepG2 cells, the competitive binding assay of PST and PSTi8 were performed and the labelled PST and/or PSTi8 concentrations were measured at 568 nm and 584 nm, respectively.

Series [2] relates to C57Bl/6 mice. In words: Glucose reduction experiment, normoglycemic mice. In kind it is in vivo. The settings on record: control C57Bl/6 mice (normoglycemic), acute i.p. 5 mg/kg. The protocol:
(§1) All animal experiments were performed according to protocols approved by Institutional Animal Ethics Committee (IAEC approval no. IAEC/2012/31-A), CSIR-Central Drug Research Institute (CSIR-CDRI, India). Male C57BL/6 mice (8–10 weeks, 15–20 g) and male db/db mice (10–12 weeks, 45–50 g) were obtained from Laboratory of Animal Division, CSIR-CDRI. […] After successful of model development diabetic mice divided in two groups, vehicle control group receive saline and treated group receive PSTi8. After acute (5 mg/kg) and chronic (2 mg/kg) treatment of PSTi8 for 10 days, mice were fasted for 6 hr before experiments and then sacrificed to collect plasma and tissues, which were snap frozen in liquid nitrogen.

Series [3] addresses T1, GRP78 receptor. The series can be described thus: GRP78 ATPase enzymatic activity (Malachite green-phosphate assay). In kind it is biochemical. Set-up: purchased Abcam Inc., Cambridge, MA ab78432. To be noted: PSTi8 5 µM with PST 1 µM, GRP78 0.25 µM, 100 µM ATP, 37 °C, 30 min. The procedure:
To determine that PSTi8 inhibit PST inhibitory action on GRP78 ATPase activity, we perform Concentration-dependent spectrophotometric assays using recombinant human GRP78 protein (catalog # ab78432, Abcam Inc., Cambridge, MA). PSTi8 was co-incubated with PST (1 µM) at different doses (1, 2.5 and 5 µM) in 50 µl of assay buffer (20 mM Tris, pH 7.5, 50 mM KCl, 1.5 mM MgCl2) containing GRP78 protein (0.25 µM). The reaction was started by adding 100 µM ATP and incubated at 37 °C for 30 min. On ATP hydrolysis free phosphate (Pi) was measured by a Malachite green-phosphate assay (catalog #10009325, Cayman)[11].

Series [4] is described as follows: In-vivo pharmacokinetic study in db/db mice. To be noted: i.p. 5 mg/kg, SPE, LC-MS/MS. The procedure: PSTi8 (5 mg/kg) was administered (i.p) in db/db mice for PK study. After dosing, blood samples were collected at different time points. Plasma samples (100 µL) were processed using the solid phase extraction (SPE). The 100 µL of eluted SPE samples were injected into the liquid chromatography tandem mass spectrometry (LC-MS/MS) (API 4000QTRAP, ABSciex, Canada) for analysis. The PK profile and parameters were evaluated by non-compartmental model approach using Pheonix 6.3 WinNonlin(Pharsight Corporation, USA).

Series [5] relates to HFrD-fed STZ induced IR mice. In words: i.p. insulin tolerance test (ITT), HFrD-fed mice. In kind it is in vivo. The settings on record: 6 h fasted, mean ± s.e.m., n = 6. The protocol:
as §1
(§2) i.p GTT, i.p ITT and i.p PTT were carried out in 6 hr fasted mice. The blood glucose level was measured from tail tip using Contour TS blood glucose meter. The AUC is calculated using GraphPad Prism 5.0 software[4],[13].

The subject of series [6] is HFrD-fed STZ induced IR mice. In words: i.p. glucose tolerance test (GTT), HFrD-fed mice. In kind it is in vivo. The settings on record: 6 h fasted, mean ± s.e.m., n = 6. The protocol: as §1, §2

As usually defined, the inhibition is the change of the read-out against control, counted positive when it falls.

T1 sequence (P11021 19-654): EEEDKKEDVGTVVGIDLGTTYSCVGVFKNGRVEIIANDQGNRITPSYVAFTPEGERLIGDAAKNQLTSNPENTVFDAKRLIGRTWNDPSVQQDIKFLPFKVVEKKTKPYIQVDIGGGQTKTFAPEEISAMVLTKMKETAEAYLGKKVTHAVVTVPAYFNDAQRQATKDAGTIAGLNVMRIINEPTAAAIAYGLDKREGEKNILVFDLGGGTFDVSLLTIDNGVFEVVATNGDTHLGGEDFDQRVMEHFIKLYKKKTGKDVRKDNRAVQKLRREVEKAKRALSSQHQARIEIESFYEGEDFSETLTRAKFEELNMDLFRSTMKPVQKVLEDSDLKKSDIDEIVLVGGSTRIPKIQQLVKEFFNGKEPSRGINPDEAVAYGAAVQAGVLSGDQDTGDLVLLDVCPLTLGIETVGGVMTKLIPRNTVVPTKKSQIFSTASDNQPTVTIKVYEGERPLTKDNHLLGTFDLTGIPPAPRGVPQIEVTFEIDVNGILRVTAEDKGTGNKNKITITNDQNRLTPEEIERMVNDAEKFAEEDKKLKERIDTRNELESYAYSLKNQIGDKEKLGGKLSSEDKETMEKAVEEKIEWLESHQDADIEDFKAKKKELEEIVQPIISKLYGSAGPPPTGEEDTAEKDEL

As for `CSCC[C@H](NC(=O)[C@H](CCC(=O)O)NC(=O)[C@H](CCC(=O)O)NC(=O)[C@H](CCC(=O)O)NC(=O)[C@H](CCC(=O)O)NC(=O)[C@H](CCC(=O)O)NC(=O)[C@H](CCCCN)NC(=O)[C@H](CCC(N)=O)NC(=O)[C@H](CCC(N)=O)NC(=O)[C@H](CO)NC(=O)[C@H](Cc1c[nH]cn1)NC(=O)[C@H](CCC(=O)O)NC(=O)[C@H](CCC(N)=O)NC(=O)[C@H](CCC(=O)O)NC(=O)CNC(=O)[C@H](CCCCN)NC(=O)CNC(=O)[C@H](CCC(=O)O)NC(=O)[C@@H]1CCCN1)C(=O)N[C@@H](C)C(=O)N[C@H](C(=O)N[C@H](C(=O)N1CCC[C@H]1C(=O)N[C@@H](CCC(N)=O)C(=O)NCC(=O)N[C@@H](CC(C)C)C(=O)N[C@@H](Cc1ccccc1)C(=O)N[C@@H](CCCNC(=N)N)C(=O)NCC(N)=O)C(C)C)C(C)C` [PST, Pancreastatin] (H-PEGKGEQEHSQQKEEEEEMAVVPQGLFRG-NH2), the inhibition at 0.1 µM in series [1] (PST 100 nM against sulphorhodamine labelled PSTi8 150 nM) was greater than 50%.
Regarding `CSCC[C@H](NC(=O)[C@H](CCC(=O)O)NC(=O)[C@H](CCC(=O)O)NC(=O)[C@H](CCC(=O)O)NC(=O)[C@H](CCC(=O)O)NC(=O)[C@H](CCC(=O)O)NC(=O)[C@H](CCCCN)NC(=O)[C@H](CCC(N)=O)NC(=O)[C@H](CCC(N)=O)NC(=O)[C@H](CO)NC(=O)[C@H](Cc1c[nH]cn1)NC(=O)[C@H](CCC(=O)O)NC(=O)[C@H](CCC(N)=O)NC(=O)[C@H](CCC(=O)O)NC(=O)CNC(=O)[C@H](CCCCN)NC(=O)CNC(=O)[C@H](CCC(=O)O)NC(=O)[C@@H]1CCCN1)C(=O)N[C@@H](C)C(=O)N[C@H](C(N)=O)C(C)C` [PSTi8] (H-PEGKGEQEHSQQKEEEEEMAV-NH2), the “effect on blood glucose level” value in series [2] is “did not show any decrease in glucose level”. Besides, the “enhancement of ATPase activity of GRP78 inhibited by PST” value in series [3] is given as roughly 50%. The compound also came in with an inhibition at 0.3 µM in series [1] (PSTi8 300 nM against sulphorhodamine labelled PST 25 nM) greater than 50%. In series [4], the “time up to which plasma concentration was observed” value is on record as no more than 6 h.
For the compound `CN(C)C(=N)N=C(N)N` [metformin], the “AUC, ipITT” value amounted to 19828.5 ± 1004.11 mg·min/dL in series [5] (acute metformin p.o. 300 mg/kg, 30 min before insulin 0.6 IU/kg) and 16417.5 ± 1222.35 mg·min/dL in series [5] (chronic metformin p.o. 300 mg/kg for 7 days, insulin 0.6 IU/kg). Besides, the “AUC, i.p GTT” value in series [6] (acute metformin p.o. 300 mg/kg, 30 min before glucose 1 g/kg) worked out at 44068.5 ± 3070.1 mg·min/dL; in series [6] (chronic metformin p.o. 300 mg/kg for 7 days, glucose 1 g/kg) it was 36913.13 ± 891.89 mg·min/dL.
